Our source for the Ki values is patent US8324250B2 (Hoffmann-La Roche Inc., priority 2009, dated 2012).

pKi: −log10 of the molar value.

The target in this experiment is T1, recombinant human NK3 receptor (Homo sapiens, UniProt P29371).
T1 construct: expressed in transfected cells; host or cells: HEK293 cells (transient expression), membranes
T1 sequence (P29371 1-465): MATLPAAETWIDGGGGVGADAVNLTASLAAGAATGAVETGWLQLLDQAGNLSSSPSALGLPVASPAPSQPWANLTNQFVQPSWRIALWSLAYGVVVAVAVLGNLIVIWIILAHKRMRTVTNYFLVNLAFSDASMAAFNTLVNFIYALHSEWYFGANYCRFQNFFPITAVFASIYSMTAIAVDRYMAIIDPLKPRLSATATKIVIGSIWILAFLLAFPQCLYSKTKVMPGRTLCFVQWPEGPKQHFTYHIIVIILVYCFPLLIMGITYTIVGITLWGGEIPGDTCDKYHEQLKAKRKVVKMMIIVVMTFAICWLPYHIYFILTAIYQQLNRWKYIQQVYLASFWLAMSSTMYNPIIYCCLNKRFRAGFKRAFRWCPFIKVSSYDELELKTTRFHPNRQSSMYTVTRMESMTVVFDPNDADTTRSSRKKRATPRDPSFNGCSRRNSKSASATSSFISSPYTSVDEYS
Nature of the experiment: [3H]SR142801 competition binding assay. The settings on record: membranes from HEK293 cells transiently expressing recombinant human NK3 receptor; [3H]SR142801 radioligand; 75 min at RT; Ki by Cheng-Prussoff; read-out: Data Ki (hNK-3 receptor affinity). The gist of the method:
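Membranes from HEK293 cells transiently expressing the receptor, 5 μg protein/well, in 50 mM Tris-HCl pH 7.4 with 4 mM MnCl2, 1 μM phosphoramidon, 0.1% BSA; nonspecific binding defined with 10 μM SB222200. Filtration and scintillation counting; IC50 from Hill fit, Ki by Cheng-Prussoff using saturation-derived KD, duplicates.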
With `O=C(c1ccc(-c2ccc(F)cc2)cc1)N1CCC(C(=O)NC(c2ccccc2)C(F)(F)F)(c2ccc(F)cc2)CC1` (stereo not drawn) [Example 145, 1-(4′-Fluoro-biphenyl-4-carbonyl)-4-(4-fluoro-phenyl)-piperidine-4-carboxylic acid (2,2,2-trifluoro-1-phenyl-ethyl)-amide], the pKi was 7.44.

As to `Cc1nc(-c2ccc(C(=O)N3CCC(C(=O)N[C@@H](C)c4ccc(F)cc4)(C4CCCC4)CC3)cc2)no1` [Example 112, 4- Cyclopentyl-1-[4-(5-methyl-[1,2,4]oxa-diazol-3-yl)-benzoyl]-piperidine-4-carboxylic acid [(S)-1-(4-fluoro-phenyl)-ethyl]-amide], the negative logarithm of the Ki (pKi) was 7.08.

`CC[C@H](NC(=O)C1(c2ccccc2)CCN(C(=O)N2CCN(c3ccc(F)cc3)CC2)CC1)c1ccccc1` [Example 231, 1-[4-(4-Fluoro-phenyl)-piperazine-1-carbonyl]-4-phenyl-piperidine-4-carboxylic acid ((S)-1-phenyl-propyl)-amide]: the pKi was 8.47.

For `C[C@H](NC(=O)C1(c2ccccc2)CCN(C(=O)c2csc(-c3ccncc3)n2)CC1)c1ccccc1` [Example 27, 4-Phenyl-1-(2-pyridin-4-yl-thiazole-4-carbonyl)-piperidine-4-carboxylic acid ((S)-1-phenyl-ethyl)-amide], the pKi is 7.12.

In the case of `Cc1noc(-c2ccc(C(=O)N3CCC(C(=O)N[C@@H](C)c4ccc(F)cc4)(c4ccccc4)CC3)cc2)n1` [Example 76, 1-[4-(3-Methyl-[1,2,4]oxa-diazol-5-yl)-benzoyl]-4-phenyl-piperidine-4-carboxylic acid [(S)-1-(4-fluoro-phenyl)-ethyl]-amide], the negative logarithm of the Ki (pKi) is 8.54.

As for `N#Cc1ccc(N2CCC(C(=O)N3CCC(C(=O)NC(c4ccc(F)cc4)C(F)(F)F)(c4ccc(F)cc4)CC3)CC2)nc1` (stereo not drawn) [Example 154, 1-(5′-Cyano-3,4,5,6-tetrahydro-2H-[1,2′]bipyridinyl-4-carbonyl)-4-(4-fluoro-phenyl)-piperidine-4-carboxylic acid [2,2,2-trifluoro-1-(4-fluoro-phenyl)-ethyl]-amide], the negative-log Ki (pKi) is 7.12.

As for `C[C@H](NC(=O)C1(c2ccccc2)CCN(C(=O)c2ccc(N3CCS(=O)(=O)CC3)cc2)CC1)c1ccc(F)cc1` [Example 78, 1-[4-(1,1-Dioxo-1λ6-thiomor-pholin-4-yl)-benzoyl]-4-phenyl-piperidine-4-carboxylic acid [(S)-1-(4-fluoro-phenyl)-ethyl]-amide], the pKi was 7.93.

Turning to `C[C@H](NC(=O)C1(c2ccccc2)CCN(C(=O)N2CCN(c3cccnc3)CC2)CC1)c1ccccc1` [Example 224, 4-Phenyl-1-(4-pyridin-3-yl-piperazine-1-carbonyl)-piperidine-4-carboxylic acid ((S)-1-phenyl-ethyl)-amide], the pKi was 7.20.

`Cc1noc(-c2ccc(C(=O)N3CCC(C(=O)N[C@@H](C)C4CCCCC4)(c4ccccc4)CC3)cc2)n1` [Example 74]: the pKi is 9.00.

`O=C(c1ccc(-c2ccc(F)cc2)cc1)N1CCC(C(=O)N[C@H](c2cccc(F)c2)C2CC2)(c2ccc(F)cc2)CC1` [Example 193, 1-(4′-Fluoro-biphenyl-4-carbonyl)-4-(4-fluoro-phenyl)-piperidine-4-carboxylci acid [(S)-cyclopropyl-(3-fluoro-phenyl)-methyl]-amide]: the pKi was 8.13.

Regarding `O=C(c1ccc(-c2ccc(F)cc2)cc1)N1CCC(C(=O)NC(c2ccccc2)C2CC2)(c2ccc(F)cc2)CC1` (stereo not drawn) [Example 147, 1-(4′-Fluoro-biphenyl-4-carbonyl)-4-(4-fluoro-phenyl)-piperidine-4-carboxylic acid (cyclopropyl-phenyl-methyl)-amide], the pKi is 7.75.

In the case of `O=C(c1ccc(-c2ccc(F)cc2)cc1)N1CCC(C(=O)NC(c2ccc(F)cc2)C(F)(F)F)(c2ccc(F)cc2)CC1` (stereo not drawn) [Example 146, 1-(4′-Fluoro-biphenyl-4-carbonyl)-4-(4-fluoro-phenyl)-piperidine-4-carboxylic acid [2,2,2-trifluoro-1-(4-fluoro-phenyl)-ethyl]-amide], the negative logarithm of the Ki (pKi) was 7.44.

Regarding `C[C@H](NC(=O)C1(c2ccccc2)CCN(C(=O)C2CCN(c3ccc(C#N)cn3)CC2)CC1)c1ccccc1` [Example 61, 1-(5′-Cyano-3,4,5,6-tetrahydro-2H-[1,2′]bipyrid-inyl-4-carbonyl)-4-phenyl-piperidine-4-carboxylic acid ((S)-1-phenyl-ethyl)-amide], the pKi was 7.42.

With `C[C@H](NC(=O)C1(c2ccccc2)CCN(C(=O)c2ccc(-c3ccncc3)cc2)CC1)c1ccccc1` [Example 7, 4-Phenyl-1-(4-pyndin-4-yl-benzoyl)-piperidine-4-carboxylic acid ((S)-1-phenyl-ethyl)-amide], the pKi was 7.40.

For `C[C@H](NC(=O)C1(c2ccccc2)CCN(C(=O)C2CCC(c3ccc(Cl)cc3)CC2)CC1)c1ccccc1` (stereo partly drawn) [Example 3, 1-[4-(4- Chlorophenyl)cyclohexanecarbonyl]-4-phenyl-piperidine-4-carboxylic acid ((S)-1-phenyl-ethyl)-amide], the pKi is 7.32.

Take `C[C@H](NC(=O)C1(c2ccccc2)CCN(C(=O)c2ccc(-c3nnco3)cc2)CC1)c1ccccc1` [Example 35, 1-(4-[l,3,4]Oxadiazol-2-yl-benzoyl)-4-phenyl-piperidine-4-carboxylic acid ((S)-1-phenyl-ethyl)-amide]: the pKi is 7.16.

As to `C[C@H](NC(=O)C1(c2ccccc2)CCN(C(=O)N2CCN(c3ccc(F)cc3)CC2)CC1)C1CCCCC1` [Example 233, 1-[4-(4-Fluoro-phenyl)-piperazine-1-carbonyl]-4-phenyl-piperidine-4-carboxylic acid ((S)-1-cyclohexyl-ethyl)-amide], the negative logarithm of the Ki (pKi) is 8.28.

For `CC[C@H](NC(=O)C1(c2ccccc2)CCN(C(=O)c2ccc(N3CCS(=O)(=O)CC3)cc2)CC1)c1ccccc1` [Example 84, 1-[4-(1,1-Dioxo-1λ6-thiomor-pholin-4-yl)-benzoyl]-4-phenyl-piperidine-4-carboxylic acid ((S)-1-phenyl-propyl)-amide], the pKi was 8.55.

With `Cc1noc(-c2ccc(C(=O)N3CCC(C(=O)N[C@@H](C)c4ccccc4)(c4ccc(F)cc4)CC3)cc2)n1` [Example 81, 4-(4-Fluoro-phenyl)-1-[4-(3-methyl-[1,2,4]oxa-diazol-5-yl)-benzoyl]-piperidine-4-carboxylic acid ((S)-1-phenyl-ethyl)-amide], the pKi is 8.22.

For `C[C@H](NC(=O)C1(c2ccccc2)CCN(C(=O)c2ccc(-c3ccccc3)cc2)CC1)c1ccccc1` [Example 2, 1-(Biphenyl-4-carbonyl)-4-phenyl-piperidine-4-carboxylic acid ((S)-1-phenyl-ethyl)-amide], the pKi was 7.64.

As for `C[C@H](NC(=O)C1(c2ccccc2)CCN(C(=O)N2CCC(N3CCSCC3)CC2)CC1)c1ccc(F)cc1` [Example 222, 4-Phenyl-1-(4-thiomorpholin-4-yl-piperidine-1-carbonyl)-piperidine-4-carboxylic acid [(S)-1-(4-fluoro-phenyl)-ethyl]-amide], the negative logarithm of the Ki (pKi) is 8.00.

For the compound `Cc1nc(-c2ccc(C(=O)N3CCC(C(=O)N[C@@H](C)C4CCCCC4)(c4ccccc4)CC3)cc2)no1` [Example 75, 1-[4-(5-Methyl-[1,2,4]oxa-diazol-3-yl)-benzoyl]-4-phenyl-piperidine-4-carboxylic acid ((S)-1-cyclohexyl-ethyl)-amide], the pKi is 8.41.

Consider `C[C@H](NC(=O)C1(c2ccc(F)cc2)CCN(C(=O)c2ccc(-c3ccc(F)cc3)cc2)CC1)c1ccc(F)cc1` [Example 89, 1-(4′-Fluoro-biphenyl-4-carbonyl)-4-(4-fluoro-piperidine-phenyl)-4-carboxylic acid [(S)-1-(4-fluoro-phenyl)-ethyl]-amide], for which the negative-log Ki (pKi) is 7.74.

`C[C@H](NC(=O)C1(c2ccccc2)CCN(C(=O)N2CCN(c3ccccc3)CC2)CC1)c1ccccc1` [Example 232, 4-Phenyl-1-(4-phenyl-piperazine-1-carbonyl)-piperidine-4-carboxylic acid ((S)-1-phenyl-ethyl)-amide]: the pKi is 7.44.

For the compound `C[C@H](NC(=O)C1(c2ccccc2)CCN(C(=O)c2ccc(-c3nnn(C)n3)cc2)CC1)c1ccccc1` [Example 72, 1-[4-(2-Methyl-2H-tetrazol-5-yl)-benzoyl]-4-phenyl-piperidine-4-carboxylic acid ((S)-1-phenyl-ethyl)-amide], the pKi was 7.80.

`CCN(NC(=O)C1(c2ccc(F)cc2)CCN(C(=O)c2ccc(-c3nc(C)no3)cc2)CC1)c1ccc(F)cc1` [Example 160, 4-(4-Fluoro-phenyl)-1-[4-(3-methyl-[1,2,4]oxodiazol-5-yl)-benzoyl]-piperidine-4-carboxylic acid N′-ethyl-#N!′-(4-fluoro-phenyl)-hydrazide]: the pKi was 7.04.

`Cc1noc(-c2ccc(C(=O)N3CCC(C(=O)N[C@H](c4cccc(F)c4)C4CC4)(c4ccc(F)cc4)CC3)cc2)n1` [Example 196, 4-(4-Fluoro-phenyl)-1-[4-(3-methyl-[1,2,4]oxadiazol-5-yl)-benzoyl]-piperidine-4-carboxylic acid [(S)-cyclopropyl-(3-fluoro-phenyl)-methyl]-amide]: the pKi was 8.66.
